Test results from patent US7943601B2, “2-methylene-20-methyl-19,24,25,26,27-pentanor-vitamin D analogs” (Wisconsin Alumni Research Foundation, priority 2007, dated 2011).
Where two headings read alike, the source gives them in different places.

Legend:
[1] = system: vitamin D-deficient rats; test: Bone calcium mobilization (serum calcium); assay type: in vivo, rat; settings: rats on low calcium diet (0.02%); for bone calcium mobilization (serum calcium levels): all dose levels tested, four ip doses
Procedure: (§1) Male, weanling Sprague-Dawley rats were placed on Diet 11 (0.47% Ca) diet+AEK oil for one week followed by Diet 11 (0.02% Ca)+AEK oil for 3 weeks. The rats were then switched to a diet containing 0.47% Ca for one week followed by two weeks on a diet containing 0.02% Ca. Dose administration began during the last week on 0.02% calcium diet. Four consecutive ip doses were given approximately 24 hours apart. Twenty-four hours after the last dose, blood was collected from the severed neck and the concentration of serum calcium determined as a measure of bone calcium mobilization. The first 10 cm of the intestine was also collected for intestinal calcium transport analysis using the everted gut sac method.

[2] = system: HL-60 cells; test: HL-60 differentiation (nitro blue tetrazolium reduction); assay type: cell-based, human; settings: four days, read-out: EC50, HL-60 cell differentiation
Procedure: The study drugs were dissolved in ethanol and the concentrations determined using UV spectrophotometry. Serial dilutions were prepared so that a range of drug concentrations could be tested without changing the final concentration of ethanol (≦0.2%) present in the cell cultures.
Human promyelocytic leukemia (HL60) cells were grown in RPMI-1640 medium containing 10% fetal bovine serum. The cells were incubated at 37° C. in the presence of 5% CO2.
HL60 cells were plated at 1.2×10^5 cells/ml. Eighteen hours after plating, cells in duplicate were treated with drug. Four days later, the cells were harvested and a nitro blue tetrazolium reduction assay was performed (Collins et al., 1979; J. Exp. Med. 149:969-974). The percentage of differentiated cells was determined by counting a total of 200 cells and recording the number that contained intracellular black-blue formazan deposits. Verification of differentiation to monocytic cells was determined by measuring phagocytic activity (data not shown).

[3] = system: 24-hydroxylase (24Ohase) gene promoter; test: In vitro transcription assay, luciferase reporter in ROS 17/2.8 (bone) cells; assay type: cell-based; settings: ROS 17/2.8 cells, sixteen hours after dosing; read-out: EC50, transcriptional activity in bone cells (24-hydroxylase gene)
Procedure: Transcription activity was measured in ROS 17/2.8 (bone) cells that were stably transfected with a 24-hydroxylase (24Ohase) gene promoter upstream of a luciferase reporter gene (Arbour et al., 1998). Cells were given a range of doses. Sixteen hours after dosing the cells were harvested and luciferase activities were measured using a luminometer.
RLU=relative luciferase units.

[4] = target: T1, full-length recombinant rat vitamin D receptor (Rattus norvegicus, UniProt P13053); test: Vitamin D receptor binding, competition with [3H]-1,25(OH)2D3
T1 construct: Full-length recombinant rat receptor was expressed in E. coli; histidine tag (C); made in house; host or cells: E. coli BL21 (DE3) Codon Plus RIL
T1 sequence (P13053 1-423): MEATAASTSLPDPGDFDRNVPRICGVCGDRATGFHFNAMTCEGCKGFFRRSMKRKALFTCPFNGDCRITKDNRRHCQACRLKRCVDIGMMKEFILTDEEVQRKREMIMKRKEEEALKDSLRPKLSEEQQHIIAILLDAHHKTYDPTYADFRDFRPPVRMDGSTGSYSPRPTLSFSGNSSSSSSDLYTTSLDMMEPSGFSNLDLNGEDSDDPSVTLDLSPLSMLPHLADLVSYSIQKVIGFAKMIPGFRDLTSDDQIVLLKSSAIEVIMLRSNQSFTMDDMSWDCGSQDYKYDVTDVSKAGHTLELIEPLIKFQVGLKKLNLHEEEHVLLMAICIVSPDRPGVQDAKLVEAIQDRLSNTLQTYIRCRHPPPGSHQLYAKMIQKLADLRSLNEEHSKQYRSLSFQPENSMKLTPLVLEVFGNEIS
Procedure: Full-length recombinant rat receptor was expressed in E. coli BL21 (DE3) Codon Plus RIL cells and purified to homogeneity using two different column chromatography systems. The first system was a nickel affinity resin that utilizes the C-terminal histidine tag on this protein. The protein that was eluted from this resin was further purified using ion exchange chromatography (S-Sepharose Fast Flow). Aliquots of the purified protein were quick frozen in liquid nitrogen and stored at −80° C. until use. For use in binding assays, the protein was diluted in TEDK50 (50 mM Tris, 1.5 mM EDTA, pH7.4, 5 mM DTT, 150 mM KCl) with 0.1% Chaps detergent. The receptor protein and ligand concentration were optimized such that no more than 20% of the added radiolabeled ligand was bound to the receptor.
Radiolabeled and unlabeled ligands were added to 100 mcl of the diluted protein at a final ethanol concentration of ≦10%, mixed and incubated overnight on ice to reach binding equilibrium. The following day, 100 mcl of hydroxylapatite slurry (50%) was added to each tube and mixed at 10-minute intervals for 30 minutes. The hydroxylapaptite was collected by centrifugation and then washed three times with Tris-EDTA buffer (50 mM Tris, 1.5 mM EDTA, pH 7.4) containing 0.5% Titron X-100. […] Total binding was determined from the tubes containing only radiolabeled ligand.

[5] = system: vitamin D-deficient rats; test: Intestinal calcium transport (everted gut sac method); assay type: in vivo, rat
Procedure: as §1

[6] = 260 pmol/day ip for 4 consecutive days, everted gut sac

Compound	bone calcium mobilization ([1]; 260 pmol/day ip for 4 consecutive days)	bone calcium mobilization ([1]; 7020 pmol/day ip for 4 consecutive days)	bone calcium mobilization (serum calcium levels) [1]	EC50 ([2]; Homo sapiens, 96 h) [nM]	EC50 [3] [nM]	affinity for the vitamin D receptor relative to 1,25(OH)2D3 ([4]; compared to 1,25(OH)2D3)	Ki ([4]; full-length recombinant rat vitamin D receptor, read-out: Ki, competition with [3H]-1,25(OH)2D3 for binding to VDR) [nM]	intestinal calcium transport [5, 6]	intestinal calcium transport ([5]; 7020 pmol/day ip for 4 consecutive days, everted gut sac)	intestinal calcium transport ([5]; four consecutive ip doses, doses tested, compared to 1,25(OH)2D3)	EC50 [2] [nM]
C=C1[C@H](O)CC(=C/C=C2\CCC[C@]3(C)[C@@H](C(C)(C)CC)CC[C@@H]23)C[C@H]1O [20DCM, 2-methylene-20-methyl-1α-hydroxy-19,24,25,26,27-pentanor-vitamin D3]	did not result in mobilization of bone calcium	without effect	does not have any measurable activity	10	4	approximately one-half log less affinity	0.08	promotes intestinal calcium transport only slightly	no significant intestinal calcium transport activity	very little activity	
C=C1/C(=C\C=C2/CCC[C@]3(C)[C@@H]([C@H](C)CCCC(C)(C)O)CC[C@@H]23)C[C@@H](O)C[C@@H]1O [1,25(OH)2D3, 1α,25-dihydroxyvitamin D3, reference compound]			increased serum calcium levels at all dosages		0.2			promotes a significant increase			4
